# In patent US20190224186A1, “TREATMENT OF MULTIPLE SCLEROSIS WITH CHS-131” (InteKrin Therapeutics, Inc., priority 2016, published 2019):
# Several values for one entry are separate records, joined by “and”; a condition that tells them apart may be missing. Equal values may be shown once.
# How the values were obtained:
# Format in all cases: in vivo, human
# [1] = tested on: MS patients in the relapsing and remitting course of the disease (RRMS); assay: Phase 2 trial: Expanded Disability Status Scale (EDSS) score
# Description: Several methods are used to diagnose and determine the impact of multiple sclerosis on patients. The McDonald criteria are used to diagnose multiple sclerosis on clinical grounds and MRI lesions consistent with MS. The Expanded Disability Status Scale (EDSS) quantifies disability in eight Functional Systems (FS) and allows neurologists to assign a Functional System Score (FSS) in each of these. The Multiple Sclerosis Functional Composite (MSFC) is a three-part, standardized, quantitative, assessment of function. The three components of the MSFC measure leg function/ambulation, arm/hand function, and cognitive function. The EDSS and MSFC scores are useful to determine if a drug improves or prevents loss of cognitive or physical function of a patient with MS. A drug is said to reduce MS-related dysfunction if it reduces a patient's EDSS or MSFC score. The study enrolled MS patients in the relapsing and remitting course of the disease (RRMS) who had been diagnosed within ≤3 years of enrollment. Patients had to be treatment-naïve, have ≥1 gadolinium-positive lesion within 12 months of enrollment, and have an Expanded Disability Status Score (EDSS) of 0-6 at screening. Part 1 was a double-blind, parallel-group, 6-month study. Patients were randomized to oral CHS-131 at 3 mg or 1 mg or placebo in a 1:1:1 ratio at 21 sites in Russia. Monthly MRIs were read in a blinded fashion at the Buffalo Neuroimaging and Analysis Center, Buffalo, N.Y., USA. Part 2 is an open label, 6-month, safety extension study, in which all subjects transition to 1 mg CHS-131 daily, to evaluate clinical response, CE lesions on MM, and safety. The EDSS scores are reported for the full analysis population in the table below.
# [2] = tested on: MS patients in the relapsing and remitting course of the disease (RRMS); assay: Trend line of change in cortical volume versus EDSS scores; conditions: 6-month time point
# Description: To evaluate the connection between cortical volume loss and dysfunction, the reduction in volume loss was compared to EDSS scores of the MS patients. FIGS. 5 and 6 show the relationship between the change in cortical volume and EDSS scores at 3 months and 6 months, respectively.
# [3] = tested on: MS patients in the relapsing and remitting course of the disease (RRMS); assay: Phase 2 trial: number of new gadolinium contrast-enhancing (CE) T1-weighted lesions on monthly MRI over 6 months; conditions: for LSMean cumulative number of new CE lesions over 6 months / mean cumulative number of new CE lesions over 6 months: n=70
# Protocol: A Phase 2, randomized, double-blind, placebo-controlled, multi-center clinical trial of CHS-131 for the treatment of multiple sclerosis (MS) was conducted. The primary endpoint was the number of new gadolinium contrast-enhancing (CE) T1-weighted lesions on monthly MRI over 6 months.
# The study enrolled MS patients in the relapsing and remitting course of the disease (RRMS) who had been diagnosed within ≤3 years of enrollment. Patients had to be treatment-naïve, have ≥1 gadolinium-positive lesion within 12 months of enrollment, and have an Expanded Disability Status Score (EDSS) of 0-6 at screening.
# Part 1 was a double-blind, parallel-group, 6-month study. Patients were randomized to oral CHS-131 at 3 mg or 1 mg or placebo in a 1:1:1 ratio at 21 sites in Russia. Monthly MRIs were read in a blinded fashion at the Buffalo Neuroimaging and Analysis Center, Buffalo, N.Y., USA. Part 2 is an open label, 6-month, safety extension study, in which all subjects transition to 1 mg CHS-131 daily, to evaluate clinical response, CE lesions on MM, and safety.
# The mean cumulative number of new CE lesions over 6 months was 4.2 (LSMean 3.10) for 3 mg CHS131 (n=70), 7.6 (LSMean 5.15) for 1 mg CHS131 (n=70), and 7.8 (LSMean 6.49) for placebo (n=69). The response was dose-dependent. […] FIG. 2 provides a graphical representation of these LSMean data.
# Upon completion of the six month trial period described in Example 1, the number of new gadolinium CE T1-weighted lesions was evaluated in the entire study population and separately in men and women.
# The ratios of changes in lesions were evaluated by a least square means (LSMeans) analysis. In such an analysis, multiple factors including both categorical (e.g. treatment, center, gender) and continuous covariates (e.g. baseline measures) can be accounted for.
# [4] = tested on: MS patients in the relapsing and remitting course of the disease (RRMS); assay: Phase 2 trial: change in cortical (neocortical) volume by MRI, SIENAX-MTP3; conditions: 3 mg
# Protocol: Upon completion of the six-month trial period described in Example 1 the change in neocortical volume and whole brain volume was evaluated. Table 9 below reports the change in neocortical volumes at 3 months and at 6 months, compared to baseline, for the 3 mg and placebo groups. Baseline volume was normalized for head size. Percent change is calculated by […]-multi-time point (MTP3) algorithm. The difference in the mean change in volume calculated to determine the impact treatment with CHS-131.
# [5] = tested on: MS patients in the relapsing and remitting course of the disease (RRMS); assay: Phase 2 trial: whole brain volume by serial MRIs
# Protocol: Whole brain volume was evaluated at baseline and six months in this study. Neural atrophy was measured by serial determination of brain volume using serial MRIs.
structure (smiles),measurement,setting,value
O=S(=O)(Nc1cc(Cl)c(Oc2cnc3ccccc3c2)c(Cl)c1)c1ccc(Cl)cc1Cl [CHS-131],Month 3 EDSS % change from baseline,[1]; 1 mg,−0.49%
same,Month 6 EDSS % change from baseline,[1]; 1 mg,−2.94%
same,Month 3 EDSS Mean (SD),"[1]; 1 mg, n=74",2.03 (0.961)
same,Month 6 EDSS Mean (SD),"[1]; 1 mg, n=74",1.98 (0.974)
same,Month 3 EDSS % change from baseline,[1]; 3 mg,−0.46%
same,Month 6 EDSS % change from baseline,[1]; 3 mg,−4.59%
same,Month 6 EDSS Mean (SD),"[1]; 3 mg, n=73",2.08 (0.846)
same,Month 3 EDSS Mean (SD),"[1]; 3 mg, n=74",2.17 (0.945)
same,"trend line slope, change in cortical volume vs EDSS score",[2]; 1 mg,−0.138
same,"trend line slope, change in cortical volume vs EDSS score",[2]; 3 mg,0.080
same,incidence of new CE lesions lower than with placebo,"[3]; 1 mg, 6 months",21%
same,LSMean cumulative number of new CE lesions over 6 months,[3]; 1 mg,5.15
same,mean cumulative number of new CE lesions over 6 months,[3]; 1 mg,7.6
same,LSMean cumulative number of new CE lesions over 6 months,[3]; 3 mg,3.10
same,mean cumulative number of new CE lesions over 6 months,[3]; 3 mg,4.2
same,reduction of incidence of new CE lesions versus placebo,"[3]; 3 mg, whole population, 6 months, p=0.003",52% and 53%
same,"LSMean # of Lesions (new gadolinium CE T1-weighted, 6 months)","[3]; Female, 1 mg",5.48
same,"Mean # of Lesions (new gadolinium CE T1-weighted, 6 months, observed data)","[3]; Female, 1 mg",8.01
same,Percent Change from Placebo (observed mean # of lesions),"[3]; Female, 1 mg",3.2%
same,Percent Change from Placebo (inverse of ratio of LSMeans treatment:placebo),"[3]; Female, 1 mg, p 0.8481",−5% (0.8481)
same,"LSMean # of Lesions (new gadolinium CE T1-weighted, 6 months)","[3]; Female, 3 mg",4.18
same,"Mean # of Lesions (new gadolinium CE T1-weighted, 6 months, observed data)","[3]; Female, 3 mg",4.97
same,Percent Change from Placebo (observed mean # of lesions),"[3]; Female, 3 mg",−36.0%
same,Percent Change from Placebo (inverse of ratio of LSMeans treatment:placebo),"[3]; Female, 3 mg, p 0.2516",−28% (0.2516)
same,"LSMean # of Lesions (new gadolinium CE T1-weighted, 6 months)","[3]; Male & Female, 1 mg",5.15
same,"Mean # of Lesions (new gadolinium CE T1-weighted, 6 months, observed data)","[3]; Male & Female, 1 mg",7.19
same,Percent Change from Placebo (observed mean # of lesions),"[3]; Male & Female, 1 mg",−9.6%
same,Percent Change from Placebo (inverse of ratio of LSMeans treatment:placebo),"[3]; Male & Female, 1 mg, p 0.3049",−21% (0.3049)
same,"LSMean # of Lesions (new gadolinium CE T1-weighted, 6 months)","[3]; Male & Female, 3 mg",3.10
same,"Mean # of Lesions (new gadolinium CE T1-weighted, 6 months, observed data)","[3]; Male & Female, 3 mg",4.51
same,Percent Change from Placebo (observed mean # of lesions),"[3]; Male & Female, 3 mg",−43.3%
same,Percent Change from Placebo (inverse of ratio of LSMeans treatment:placebo),"[3]; Male & Female, 3 mg, p 0.0016",−52% (0.0016)
same,"LSMean # of Lesions (new gadolinium CE T1-weighted, 6 months)","[3]; Male, 1 mg",4.31
same,"Mean # of Lesions (new gadolinium CE T1-weighted, 6 months, observed data)","[3]; Male, 1 mg",5.93
same,Percent Change from Placebo (observed mean # of lesions),"[3]; Male, 1 mg",−30.4%
same,Percent Change from Placebo (inverse of ratio of LSMeans treatment:placebo),"[3]; Male, 1 mg, p 0.0827",−48% (0.0827)
same,"LSMean # of Lesions (new gadolinium CE T1-weighted, 6 months)","[3]; Male, 3 mg",2.42
same,"Mean # of Lesions (new gadolinium CE T1-weighted, 6 months, observed data)","[3]; Male, 3 mg",3.81
same,Percent Change from Placebo (observed mean # of lesions),"[3]; Male, 3 mg",−55.4%
same,Percent Change from Placebo (inverse of ratio of LSMeans treatment:placebo),"[3]; Male, 3 mg, p 0.0012",−71% (0.0012)
same,reduction of new T1 lesions in the study analysis,"[3]; men, 3 mg per day",71%
same,Cortical volume rate of loss,[4]; 3 Months,−0.297
same,"Reduction in cortical volume loss from CHS-131, as compared to placebo",[4]; 3 Months,42.6%
same,Cortical volume rate of loss,[4]; 6 Months,−0.709
same,"Reduction in cortical volume loss from CHS-131, as compared to placebo",[4]; 6 Months,34.2%
same,"Cortical volume, percent change from baseline to 6 month, Mean",[4]; n=56,−0.709%
same,"Cortical volume, percent change from baseline to 6 month, Median",[4]; n=56,−0.832%
same,"Cortical volume, percent change from baseline to 3 month, Mean",[4]; n=61,−0.297%
same,"Cortical volume, percent change from baseline to 3 month, Median",[4]; n=61,−0.325%
same,less neural volume loss compared to placebo,"[5]; 1 mg daily, 6 months",13%
same,brain volume lost over 6 months,[5]; 1 mg/day,0.14%
same,less parenchymal atrophy than the placebo treated cohort,"[5]; 3 mg daily, 6 months",50%
same,neural parenchyma volume lost over 6 months,[5]; 3 mg/day,0.08%
